Here are results for 2 compounds from ChEMBL document CHEMBL1144789, “Identification of fredericamycin E from Streptomyces griseus: Insights into fredericamycin A biosynthesis highlighting carbaspirocycle formation” (J Nat Prod, 2008).

Type in all cases: functional, cell-based
For one experiment, the system named is MCF7. The experiment is described as follows: Cytotoxicity against human MCF7 cells by calcein AM/[…] fluorometric detection.
The test system of another experiment is HT-29. In words: Cytotoxicity against human HT29 cells by calcein AM/[…] fluorometric detection.
A further experiment relates to A549. In words: Cytotoxicity against human A549 cells by calcein AM/[…] fluorometric detection.
The subject of a further experiment is DU-145. In words: Cytotoxicity against human Du145 cells by calcein AM/[…] fluorometric detection.
The subject of the next experiment is HCT-15. In words: Cytotoxicity against human HCT15 cells by calcein AM/[…] fluorometric detection.
The nature of experiment [1]: Cytotoxicity against mouse P388D1 cells by calcein AM/[…] fluorometric detection.

In the case of `C/C=C/C=C/c1cc2cc3c(c(O)c2c(=O)[nH]1)[C@@]1(CC3)C(=O)c2c(O)c3c(c(O)c2C1=O)C(=O)C(OC)=CC3=O` [FDM A], the EC50 – broadly, the concentration that produces a half-maximal response – in the experiment with MCF7 is 360 nM; in the experiment on HT-29 it was 570 nM; in the experiment on A549 it was 1800 nM; in the experiment on DU-145, 2700 nM; in the experiment with HCT-15, 2400 nM; in experiment [1] it was 50 nM.

With `C/C=C/C=C/c1cc2cc3c(c(O)c2c(=O)[nH]1)[C@@]1(CC3)C(=O)C(=O)c2c(c(O)c3c(O)c(OC)cc(O)c3c2O)C1=O` [FDM E], the concentration giving a half-maximal response (EC50) in the experiment with MCF7 is 7300 nM; in the experiment with HT-29 it was 3600 nM; in the experiment with A549 it was 4100 nM; in the experiment with DU-145 it was 8100 nM; in the experiment with HCT-15 it was 4000 nM; in experiment [1] it was 170 nM.
